Laboratory results from ChEMBL document CHEMBL1142548, “Time-dependent intracellular trafficking of FITC-conjugated epigallocatechin-3-O-gallate in L-929 cells” (Bioorg Med Chem, 2008).
pIC50: −log10 of the molar value.

System: L1210
Assay: Cytotoxicity against mouse L1210 cells after 24 hrs by WST8 assay
Assay type: functional, cell-based
Conditions: L1210, 24 h

| Compound | pIC50 |
| --- | --- |
| O=C(O[C@@H]1Cc2c(O)cc(O)cc2O[C@@H]1c1cc(O)c(O)c(O)c1)c1cc(O)c(O)c(OC(=S)Nc2ccc3c(c2)C(=O)OC32c3ccc(O)cc3Oc3cc(O)ccc32)c1 | ≤ 3.49 |
| O=C1OC2(c3ccc(O)cc3Oc3cc(O)ccc32)c2ccc(N=C=S)cc21 | 3.15 |
| O=C(O[C@@H]1Cc2c(O)cc(O)cc2O[C@@H]1c1cc(O)c(O)c(O)c1)c1cc(O)c(O)c(O)c1 [EPIGALOCATECHIN GALLATE] | 3.16 |
